Test results taken from BigSolDB 2.1.

c1ccc2[nH]c(-c3cscn3)nc2c1
solubility (mole fraction)
Conditions | 283.15 K | 288.15 K | 293.15 K | 298.15 K | 303.15 K | 308.15 K | 313.15 K | 318.15 K | 323.15 K
in acetonitrile | 0.000106 | 0.000125 | 0.00015 | 0.000177 | 0.000213 | 0.000259 | 0.0003 | 0.000353 | 0.000419
in isopropanol | 0.000682 | 0.000785 | 0.000915 | 0.00103 | 0.00121 | 0.00137 | 0.00155 | 0.00174 | 0.00193
in methanol | 0.0013 | 0.00147 | 0.00163 | 0.00181 | 0.002 | 0.00223 | 0.00248 | 0.00273 | 0.00297
in n-propanol | 0.00136 | 0.00156 | 0.00177 | 0.002 | 0.00225 | 0.00252 | 0.00282 | 0.00314 | 0.00347
in water | 2.04e-07 | 2.67e-07 | 3.42e-07 | 4.23e-07 | 5.25e-07 | 6.68e-07 | 8.6e-07 | 1.08e-06 | 1.36e-06
